In ChEMBL document CHEMBL5126517, “Structure-Activity Relationship in the Leucettine Family of Kinase Inhibitors” (J Med Chem, 2022):
pEC50, pIC50: −log10 of the molar value. The source made the active and inactive calls.

Assays:
[1] = target: T1, Dual specificity tyrosine-phosphorylation-regulated kinase 3 (Homo sapiens, UniProt O43781); experiment: Inhibition of GST-fused human recombinant DYRK3 expressed in Escherichia coli using GRSRSRSRSRSR peptide as substrate incubated for 30 mins in presence of ATP by scintillation counting method
T1 sequence (O43781 whole entry): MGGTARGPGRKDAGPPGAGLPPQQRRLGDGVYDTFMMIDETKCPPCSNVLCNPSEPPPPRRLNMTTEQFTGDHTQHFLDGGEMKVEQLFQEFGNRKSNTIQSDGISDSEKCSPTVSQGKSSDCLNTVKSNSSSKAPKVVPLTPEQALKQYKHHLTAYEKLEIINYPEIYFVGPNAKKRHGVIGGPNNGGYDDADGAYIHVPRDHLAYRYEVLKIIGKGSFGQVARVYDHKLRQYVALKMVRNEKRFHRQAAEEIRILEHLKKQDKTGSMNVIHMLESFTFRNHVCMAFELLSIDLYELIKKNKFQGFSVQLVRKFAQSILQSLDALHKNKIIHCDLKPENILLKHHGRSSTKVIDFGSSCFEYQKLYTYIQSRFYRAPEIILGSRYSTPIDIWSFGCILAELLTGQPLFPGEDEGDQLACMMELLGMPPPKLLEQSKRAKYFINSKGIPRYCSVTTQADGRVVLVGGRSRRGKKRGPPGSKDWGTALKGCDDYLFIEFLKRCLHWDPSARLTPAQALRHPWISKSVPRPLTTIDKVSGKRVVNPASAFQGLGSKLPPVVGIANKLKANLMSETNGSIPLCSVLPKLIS

Cannabinoid receptor 1 [2] = target: T2, Cannabinoid receptor 1 (Homo sapiens, UniProt P21554); experiment: […] allosteric modulation of CB1 receptor (unknown origin) expressed in HEK293 cell membrane assessed as inhibition of CP-55940-induced [35S]-GTPgammaS binding at 10 uM in presence of GDP by liquid scintillation counting method; format: functional, cell membranes; details: DDE = dose-dependent effect
[3] = target: Dual specificity tyrosine-phosphorylation-regulated kinase 1B (Homo sapiens, UniProt Q9Y463)
Cannabinoid receptor 1 [4] = target: T2, Cannabinoid receptor 1; experiment: Antagonist activity at CP-55940-activated CB1 receptor (unknown origin) by beta-arrestin assay; format: functional
[5] = target: Dual specificity protein kinase CLK1 (Mus musculus, UniProt P22518); experiment: Inhibition of GST-fused mouse recombinant CLK1 expressed in Escherichia coli using GRSRSRSRSRSR peptide as substrate incubated for 30 mins in presence of ATP by scintillation counting method
Cannabinoid receptor 1 [6] = target: T2, Cannabinoid receptor 1; experiment: Displacement of [3H]-CP55940 from CB1 receptor (unknown origin) expressed in HEK293 cell membrane assessed as dissociation constant at 10 uM by liquid scintillation counting method; format: cell membranes; details: filed as modulator
[7] = target: Dual specificity protein kinase CLK4 (Mus musculus, UniProt O35493); experiment: Inhibition of GST-fused mouse recombinant CLK4 expressed in Escherichia coli using GRSRSRSRSRSR peptide as substrate incubated for 30 mins in presence of ATP by scintillation counting method
[8] = target: T3, Glycogen synthase kinase-3 (Sus scrofa, UniProt B2LUN4+I6LNT8); experiment: Inhibition of porcine brain GSK-3alpha/beta using YRRAAVPPSPSLSRHSSPHQpSEDEEE as substrate incubated for 30 mins in presence of ATP by scintillation counting method; format: tissue-based
HT-22 [9] = experiment: Neuroprotective activity against glutamate-induced cell death in mouse HT-22 cells treated for 24 hrs by MTS assay; format: functional, cell-based; details: HT-22, 24 h
[10] = Neurotoxicity against mouse HT-22 cells assessed as cell survival at 20 uM treated for 24 hrs by MTS assay; format: toxicity, cell-based; details: ht-22, 24 h
Cannabinoid receptor 1 [11] = target: T2, Cannabinoid receptor 1; experiment: Antagonist activity at CP-55940-activated CB1 receptor (unknown origin) at 10 uM by beta-arrestin assay relative to control; format: functional; parameters: scale not given: the % may be the effect or the level left
[12] = target: T4, Dual specificity tyrosine-phosphorylation-regulated kinase 1A (Homo sapiens, UniProt Q13627); experiment: Inhibition of GST-fused human recombinant DYRK1A expressed in Escherichia coli using GRSRSRSRSRSR peptide as substrate incubated for 30 mins in presence of ATP by scintillation counting method
U2OS = experiment: Induction of PI3K/mTor-dependent autophagy in human U2OS cells assessed as number of LC3 foci per cell at 10 uM measured after 4 hrs; format: cell-based; details: filed as activator
[13] = target: T5, Dual specificity tyrosine-phosphorylation-regulated kinase 2 (Homo sapiens, UniProt Q92630); experiment: Inhibition of GST-fused human recombinant DYRK2 expressed in Escherichia coli using GRSRSRSRSRSR peptide as substrate incubated for 30 mins in presence of ATP by scintillation counting method
T5 sequence (Q92630 whole entry): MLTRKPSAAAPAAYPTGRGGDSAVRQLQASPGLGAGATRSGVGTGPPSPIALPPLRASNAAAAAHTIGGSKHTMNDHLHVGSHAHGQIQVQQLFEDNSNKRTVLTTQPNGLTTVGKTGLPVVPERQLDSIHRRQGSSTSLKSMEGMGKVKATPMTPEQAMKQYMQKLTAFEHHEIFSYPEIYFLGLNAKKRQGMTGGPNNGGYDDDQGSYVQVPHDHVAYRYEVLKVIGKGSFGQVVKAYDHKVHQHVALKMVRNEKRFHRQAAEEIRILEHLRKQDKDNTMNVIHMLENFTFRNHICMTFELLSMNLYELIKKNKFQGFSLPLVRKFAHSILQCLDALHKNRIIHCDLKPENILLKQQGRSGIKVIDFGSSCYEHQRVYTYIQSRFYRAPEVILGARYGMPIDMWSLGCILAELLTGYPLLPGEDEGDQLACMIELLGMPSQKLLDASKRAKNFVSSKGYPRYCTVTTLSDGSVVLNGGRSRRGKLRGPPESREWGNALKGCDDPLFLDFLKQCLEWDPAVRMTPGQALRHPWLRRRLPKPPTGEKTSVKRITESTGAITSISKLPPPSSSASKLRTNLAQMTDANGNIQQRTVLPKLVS

[14] = target: Dual specificity protein kinase CLK2 (Mus musculus, UniProt O35491); experiment: Inhibition of mouse recombinant GST-fused CLK2 expressed in Escherichia coli using GRSRSRSRSRSR peptide as substrate incubated for 30 mins in presence of ATP by scintillation counting method
[15] = Drug metabolism in human liver microsomes assessed as GSH reduction metabolite at 50 uM incubated for 60 mins in presence of 13C2,15N-GSH by LC-MS/MS analysis; format: ADME, Microsome; details: 1 h
Casein kinase 2 = Casein kinase 2 (Homo sapiens, UniProt P67870+P68400+P19784+Q8NEV1); experiment: Inhibition of human recombinant CK2 using RRRDDDSDDD peptide as substrate incubated for 30 mins in presence of ATP by scintillation counting method; format: protein assay
[16] = target: T4, Dual specificity tyrosine-phosphorylation-regulated kinase 1A; experiment: Inhibition of DYRK1A in human SH-SY5Y overexpressing Tau4R cells assessed as phosphorylated Tau Thr212 residue level at 10 uM incubated for 6 hrs by western blot analysis relative to control; format: cell-based
[17] = Neurotoxicity against mouse HT-22 cells assessed as cell survival treated for 24 hrs by MTS assay; format: toxicity, cell-based
HT-22 [18] = experiment: Modulation of CLK1 pre-mRNA splicing in mouse HT-22 cells assessed as inclusion of CLK1 exon 4 by measuring change in threshold cycle at 10 uM measured after 4 hrs by real time PCR analysis; format: cell-based; details: filed as modulator
[19] = target: Serine/threonine-protein kinase pim-1 (Homo sapiens, UniProt P11309); experiment: Inhibition of human recombinant Pim1 expressed in Escherichia coli using histone H1 as substrate incubated for 30 mins in presence of ATP by scintillation counting method
[20] = target: Dual specificity protein kinase CLK3 (Mus musculus, UniProt O35492); experiment: Inhibition of GST-fused mouse recombinant CLK3 expressed in Escherichia coli using GRSRSRSRSRSR peptide as substrate incubated for 30 mins in presence of ATP by scintillation counting method
HT-22 [21] = experiment: Induction of PI3K/mTor-dependent autophagy in mouse HT-22 cells assessed as number of LC3 foci per cell at 10 uM incubated for 24 hrs using Anti-LC3 staining based immunofluorescence microscopy; details: filed as activator
HT-22 [22] = experiment: Induction of PI3K/mTor-dependent autophagy in mouse HT-22 cells assessed as number of LC3 foci per cell at 10 uM incubated for 24 hrs using Lamp-1 staining based immunofluorescence microscopy; details: filed as activator
[23] = target: T3, Glycogen synthase kinase-3; experiment: Inhibition of porcine brain GSK-3alpha/beta at 10 uM using YRRAAVPPSPSLSRHSSPHQpSEDEEE as substrate incubated for 30 mins in presence of ATP by scintillation counting method; format: tissue-based

Dual specificity protein kinase CLK3, sequence (O35492 whole entry, the tested form may be a part): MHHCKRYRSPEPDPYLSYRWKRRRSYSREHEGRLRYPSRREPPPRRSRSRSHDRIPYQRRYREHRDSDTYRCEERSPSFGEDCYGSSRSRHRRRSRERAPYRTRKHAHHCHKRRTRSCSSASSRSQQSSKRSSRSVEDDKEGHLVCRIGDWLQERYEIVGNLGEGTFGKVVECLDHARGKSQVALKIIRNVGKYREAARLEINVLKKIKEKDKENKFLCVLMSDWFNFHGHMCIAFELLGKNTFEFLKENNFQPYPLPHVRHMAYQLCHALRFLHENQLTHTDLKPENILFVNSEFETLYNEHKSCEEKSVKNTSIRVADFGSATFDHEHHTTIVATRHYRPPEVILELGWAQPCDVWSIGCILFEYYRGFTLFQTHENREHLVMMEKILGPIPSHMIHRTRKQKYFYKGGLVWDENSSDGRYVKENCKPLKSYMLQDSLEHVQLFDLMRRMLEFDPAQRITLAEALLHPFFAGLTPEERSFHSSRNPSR
Dual specificity tyrosine-phosphorylation-regulated kinase 1B, sequence (Q9Y463 whole entry): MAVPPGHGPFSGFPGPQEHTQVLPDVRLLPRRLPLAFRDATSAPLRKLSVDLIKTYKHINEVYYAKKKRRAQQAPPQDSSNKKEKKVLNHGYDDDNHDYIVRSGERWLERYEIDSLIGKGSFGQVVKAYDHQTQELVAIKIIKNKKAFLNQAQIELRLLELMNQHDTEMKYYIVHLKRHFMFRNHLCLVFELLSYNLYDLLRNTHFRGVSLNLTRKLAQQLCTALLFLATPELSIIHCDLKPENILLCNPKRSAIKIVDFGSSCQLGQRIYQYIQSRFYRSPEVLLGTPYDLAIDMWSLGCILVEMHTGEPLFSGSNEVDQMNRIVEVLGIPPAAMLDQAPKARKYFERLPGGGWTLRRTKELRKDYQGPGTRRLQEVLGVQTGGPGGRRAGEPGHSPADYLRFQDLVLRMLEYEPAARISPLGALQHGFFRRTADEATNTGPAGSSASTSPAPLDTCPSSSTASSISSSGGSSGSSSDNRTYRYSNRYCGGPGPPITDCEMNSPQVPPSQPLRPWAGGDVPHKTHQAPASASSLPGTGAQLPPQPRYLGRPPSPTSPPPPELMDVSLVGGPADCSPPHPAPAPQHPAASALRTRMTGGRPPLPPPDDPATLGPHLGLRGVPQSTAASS
Dual specificity protein kinase CLK2, sequence (O35491 whole entry, the tested form may be a part): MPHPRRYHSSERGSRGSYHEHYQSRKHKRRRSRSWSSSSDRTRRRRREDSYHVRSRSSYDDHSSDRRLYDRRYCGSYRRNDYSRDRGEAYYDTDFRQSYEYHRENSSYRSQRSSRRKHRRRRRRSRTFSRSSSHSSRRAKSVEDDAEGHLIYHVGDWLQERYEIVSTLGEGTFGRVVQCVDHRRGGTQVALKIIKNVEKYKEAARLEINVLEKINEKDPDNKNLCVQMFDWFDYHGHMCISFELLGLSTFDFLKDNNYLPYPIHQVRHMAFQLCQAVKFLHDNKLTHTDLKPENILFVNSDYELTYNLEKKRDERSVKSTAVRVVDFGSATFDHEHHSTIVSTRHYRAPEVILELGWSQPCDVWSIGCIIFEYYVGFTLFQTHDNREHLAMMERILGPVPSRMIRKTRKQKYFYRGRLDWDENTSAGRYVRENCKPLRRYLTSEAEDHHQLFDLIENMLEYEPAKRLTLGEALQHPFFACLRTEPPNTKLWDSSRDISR
Dual specificity protein kinase CLK4, sequence (O35493 whole entry, the tested form may be a part): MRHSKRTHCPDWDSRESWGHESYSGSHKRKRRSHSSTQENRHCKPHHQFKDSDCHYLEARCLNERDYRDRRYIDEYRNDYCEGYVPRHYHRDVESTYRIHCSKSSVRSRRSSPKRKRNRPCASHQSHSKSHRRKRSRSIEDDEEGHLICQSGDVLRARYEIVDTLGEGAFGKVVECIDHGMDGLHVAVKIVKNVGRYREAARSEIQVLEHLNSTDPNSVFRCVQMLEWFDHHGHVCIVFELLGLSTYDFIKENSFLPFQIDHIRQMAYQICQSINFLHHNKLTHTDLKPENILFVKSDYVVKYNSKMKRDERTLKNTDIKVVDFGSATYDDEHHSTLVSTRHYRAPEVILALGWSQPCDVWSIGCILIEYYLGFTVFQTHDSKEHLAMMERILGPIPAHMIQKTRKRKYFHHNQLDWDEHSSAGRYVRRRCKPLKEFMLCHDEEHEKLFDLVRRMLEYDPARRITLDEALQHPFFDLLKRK
Serine/threonine-protein kinase pim-1, sequence (P11309 whole entry, the tested form may be a part): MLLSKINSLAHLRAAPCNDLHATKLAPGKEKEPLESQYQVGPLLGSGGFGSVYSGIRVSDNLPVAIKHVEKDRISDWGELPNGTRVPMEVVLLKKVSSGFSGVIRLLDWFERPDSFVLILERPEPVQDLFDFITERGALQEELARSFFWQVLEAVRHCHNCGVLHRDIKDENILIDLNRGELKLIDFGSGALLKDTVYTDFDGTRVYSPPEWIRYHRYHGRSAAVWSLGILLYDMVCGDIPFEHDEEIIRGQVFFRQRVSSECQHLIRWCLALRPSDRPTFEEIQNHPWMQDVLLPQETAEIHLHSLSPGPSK
Dual specificity protein kinase CLK1, sequence (P22518 whole entry, the tested form may be a part): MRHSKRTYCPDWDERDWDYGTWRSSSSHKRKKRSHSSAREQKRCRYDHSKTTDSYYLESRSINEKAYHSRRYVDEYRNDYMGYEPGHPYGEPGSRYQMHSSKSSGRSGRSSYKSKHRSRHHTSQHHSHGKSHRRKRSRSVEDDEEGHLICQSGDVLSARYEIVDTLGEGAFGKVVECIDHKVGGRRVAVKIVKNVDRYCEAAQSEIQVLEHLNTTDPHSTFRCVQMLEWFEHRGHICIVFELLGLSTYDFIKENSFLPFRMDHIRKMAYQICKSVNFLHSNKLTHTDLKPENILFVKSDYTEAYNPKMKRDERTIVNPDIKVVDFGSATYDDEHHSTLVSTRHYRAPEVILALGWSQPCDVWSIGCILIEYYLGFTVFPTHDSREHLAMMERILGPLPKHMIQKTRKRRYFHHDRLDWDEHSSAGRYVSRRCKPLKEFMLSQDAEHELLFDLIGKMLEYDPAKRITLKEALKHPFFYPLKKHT
T2 sequence (P21554 whole entry): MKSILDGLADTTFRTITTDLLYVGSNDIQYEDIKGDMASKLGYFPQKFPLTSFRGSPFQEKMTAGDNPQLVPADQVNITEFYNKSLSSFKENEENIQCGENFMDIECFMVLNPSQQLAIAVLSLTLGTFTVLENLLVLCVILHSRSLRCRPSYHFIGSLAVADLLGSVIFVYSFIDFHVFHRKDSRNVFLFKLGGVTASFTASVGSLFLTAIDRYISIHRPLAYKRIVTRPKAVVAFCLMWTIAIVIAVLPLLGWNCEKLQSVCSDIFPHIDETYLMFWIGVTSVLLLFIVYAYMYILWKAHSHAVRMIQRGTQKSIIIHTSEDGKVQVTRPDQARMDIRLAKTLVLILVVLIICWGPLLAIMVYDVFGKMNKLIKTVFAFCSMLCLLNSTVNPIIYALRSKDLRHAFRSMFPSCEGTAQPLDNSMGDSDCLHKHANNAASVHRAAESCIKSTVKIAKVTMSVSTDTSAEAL

| Activity (Cannabinoid receptor 1 [11]; filed as antagonist) | SMILES | pIC50 [1] | pIC50 [3] | pIC50 [5] | pIC50 [7] | IC50 [8] | pEC50 (HT-22 [9]) | Activity [10] | pIC50 [12] | Activity (U2OS) | pIC50 [13] | pIC50 [14] | Activity (Cannabinoid receptor 1 [11]) | IC50 (Casein kinase 2) | inhibition [16] | deltaCT (HT-22 [18]) | pIC50 [19] | pIC50 [20] | also measured |
| --- | --- | --- | --- | --- | --- | --- | --- | --- | --- | --- | --- | --- | --- | --- | --- | --- | --- | --- | --- |
|  | COc1cc(/C=C2\N=C(Nc3ccc(N4CCN(C)CC4)cc3)NC2=O)ccc1O |  |  |  |  | 0.2 µM | < 4.70 | Non-Toxic |  | 22 |  |  | 14.3% |  |  |  |  |  | Drug metabolism [15]: Metabolite_Notdetected |
|  | CCCSC1=N/C(=C\c2ccc3c(c2)OCO3)C(=O)N1 | 6.29 | 7.05 | 7.47 | 7.57 | 1.4 µM |  | Non-Toxic | 7.40 | 7.3 | 7.43 | 6.96 | -2.6% | 1.7 µM | -2.4% | 2.48 | 6.02 | 5.51 | EC50 at 24 h [17]: > 20 µM |
|  | O=C1NC(Nc2ccc(-c3ccccc3)cc2)=N/C1=C\c1ccc2c(c1)OCO2 |  | < 5.00 | < 5.00 | 5.28 |  | < 4.70 | Non-Toxic | 5.09 | 6.8 | 5.38 | < 5.00 | 36.8% |  | -5.1% |  |  |  |  |
| 89.3% | O=C1NC(Nc2ccccc2)=N/C1=C\c1ccc2c(c1)OCCCO2 |  | < 5.00 | < 5.00 | < 5.00 |  | 4.90 | Non-Toxic |  | 5.6 | < 5.00 |  |  |  |  |  | < 5.00 |  | Activity (Cannabinoid receptor 1 [2]): Dde; Kb (Cannabinoid receptor 1 [6]): 1200 nM |
|  | COc1cc(/C=C2\N=C(Nc3ccccc3)NC2=O)ccc1O | 6.92 | 7.21 | 7.68 | 7.64 | 1.1 µM | 5.89 |  | 7.15 | 11.7 | 7.48 | 6.85 | 1.6% | 0.62 µM |  |  | 6.74 | 6.21 | pIC50 (Cannabinoid receptor 1 [4]): 5.33; Activity (HT-22 [21]): Active; IC50 at 24 h [17]: > 20 µM; Activity (HT-22 [22]): Active |
|  | CCCNC1=N/C(=C\c2ccc3c(c2)OCO3)C(=O)N1CCC | < 5.00 | < 5.00 | 5.52 | 5.64 | > 10 µM |  | Non-Toxic | < 5.00 | 5 | < 5.00 | ≤ 5.00 | -13.4% |  | -1.5% | -0.32 |  | < 5.00 |  |
|  | O=C1N=C(Nc2ccccc2)S/C1=C\c1ccc2c(c1)OCO2 |  | 6.21 | 6.10 | 5.92 |  |  |  | 5.00 | 5.9 | < 5.00 | < 5.00 | -5.9% | 2.5 µM |  | -0.09 | < 5.00 | 6.37 | IC50 [23]: 2.5 µM; EC50 at 24 h [17]: > 20 µM |
| 54.3% | CCCCOc1ccc(/C=C2\N=C(Nc3ccccc3)NC2=O)cc1OC |  |  |  |  |  | 5.61 | Non-Toxic |  | 7.6 |  |  |  |  | -8% |  |  |  |  |
|  | CCNC1=N/C(=C\c2ccc3c(c2)OCO3)C(=O)N1 | 6.33 | 6.32 | 7.19 | 7.22 | 2.4 µM |  | Non-Toxic | 6.85 | 5.6 | 6.72 | 6.42 | -40.4% | 0.41 µM | -6% | 2.64 | 5.92 | 5.64 |  |

| SMILES | Activity (Cannabinoid receptor 1 [11]; filed as antagonist) | pIC50 [1] | pIC50 [3] | pIC50 [5] | pIC50 [7] | IC50 [8] | pEC50 (HT-22 [9]) | Activity [10] | pIC50 [12] | Activity (U2OS) | pIC50 [13] | pIC50 [14] | Activity (Cannabinoid receptor 1 [11]) | IC50 (Casein kinase 2) | inhibition [16] | deltaCT (HT-22 [18]) | pIC50 [19] | pIC50 [20] | also measured |
| --- | --- | --- | --- | --- | --- | --- | --- | --- | --- | --- | --- | --- | --- | --- | --- | --- | --- | --- | --- |
| O=C1NC(Nc2ccc(N3CCCCC3)cc2)=N/C1=C\c1ccc2c(c1)OCO2 | 81.7% | < 5.00 | 5.68 | 5.38 | 5.82 | > 10 µM | 6.18 | Non-Toxic | 6.15 | 11.4 | 6.64 | < 5.00 |  |  |  |  |  |  | Activity (Cannabinoid receptor 1 [2]): Dde; pIC50 (Cannabinoid receptor 1 [4]): 7.04; Kb (Cannabinoid receptor 1 [6]): 3300 nM |
